Measurements reported in patent US8535741B2, “Method and composition for administering bioactive compounds derived from Morinda citrifolia” (priority 2006, dated 2013).
pIC50: −log10 of the molar value.

Columns and labels:
[1] = system: human epidermoid carcinoma cell line-A431; test: cells; type: cell-based; conditions: for Percent Grown: A431, 72-hour exposure
Experimental: In this example, assays were performed to detect changes in cell proliferation based on the ability of viable cells to cause alamarBlue to change from non-fluorescent blue to a reduced, fluorescent red form. With the results obtained from the alamarBlue reaction, cell proliferation can be quantified and metabolic activity of viable cells can be examined. Test compounds including Morinda citrifolia leaf extract, leaf juice, and roast leaf were tested for their effects on the proliferation of human epidermoid carcinoma cell line-A431 at assay concentrations from 0.01 to 100 μg/ml or 0.0001% to 1% through serial 10-fold dilutions.
Morinda citrifolia leaf extract, leaf juice, and roast leaf were provided by Tahitian Noni International, Inc. for in vitro anti-tumor studies. The Morinda citrifolia compounds were dissolved in sterile distilled water and then diluted with sterile distilled water to obtain initial working solutions of 10000, 1000, 100, 10, and 1 μg/ml for the leaf extract and roast leaf, as well as 100, 10, 1, 0.1 and 0.01% for the leaf juice. In testing, 100-fold dilution was made in culture media to get final assay concentrations of 100, 10, 1, 0.1 and 0.01 μg/ml, and 1, 0.1, 0.01, 0.001 and 0.0001%, respectively.
The tumor cell line, A431 (human epidermoid carcinoma), obtained from American Type Culture Collection (ATCC CRL-1555), was incubated in an air atmosphere of 5% CO2 at 37° C. The culture medium was used with Dulbecco's Modified Eagle's medium, 90%; Fetal Bovine Serum, 10% and supplemented with 1% Antibiotic-Antimycotic.
The anti-proliferation for the test substances was evaluated. Aliquots of 100 µl of cell suspension (about 3×10^3/well) were placed in 96-well microtiter plates in an atmosphere of 5% CO2 at 37° C. […] Two test compounds, leaf extract and roast leaf, were evaluated at concentrations of […]. The other compound, leaf juice, was evaluated at concentrations of 1, 0.1, 0.01, 0.001 and 0.0001%. At the end of incubation, 20 µl of 90% alamarBlue reagent was added to each well for another 6-hour incubation before detection of cell viability by fluorescent intensity. Fluorescent intensity was measured using a Spectrafluor Plus plate reader with excitation at 530 nm and demission at 590 nm.
IC50, TGI, and LC50 values were then determined. […] TGI (Total Growth Inhibition) is the test compound concentration where the number or mass of treated cells at the end of the experiment was equal to that at time0. […] The measured results were calculated by the following formula: PG(%)=100×(Mean Ftest−Mean Ftime0)^/(Mean Fctr l−Mean Ftime0)
If (Mean Ftest−Mean Ftime0)^<0, then PG(%)−100×(Mean Ftest−Mean Ftime0)/(Mean Ftime0−Mean Fblank)
Where: PG=percent growth; Mean Ftime0=The average of 2 measured fluorescent intensities of reduced alamarBlue at the time just before exposure of cells to the test substance; Mean Ftest=The average of 2 measured fluorescent intensities of alamarBlue after 72-hour exposure of cells to the test substance; Mean Fctrl=The average of 2 measured fluorescent intensities of alamarBlue after 72-hour incubation without the test substance; and Mean Fblank=The average of 2 measured fluorescent intensities of alamarBlue in medium without cells after 72-hour incubation.
A decrease of 50% or more (≧50%) in fluorescent intensity relative to the vehicle-treated control indicated significant cell growth inhibition, cytostatic or cytotoxic activity, and a semi-quantitative IC50, TGI, and LC50 were then determined by nonlinear regression using GraphPad Prism (GraphPad Software, USA).

Adenosine A2A = Adenosine A2A (Homo sapiens, UniProt P29274); test: bio-assay on Adenosine A2A; conditions: isolated from squeezed juice of fresh Morinda citrifolia leaf
Source text: Their structures have been determined by NMR techniques and mass spectrometry and they have been identified as Pyro-phorbide a, Pheoporbide a, Purpin 7, and Pheophorbide Phytolester. The isolation and characterization of the above referenced bioactive compounds provides a significant explanation for the anti-inflammatory and analgesic properties of extracts derived from the Morinda citrifolia plant, particularly from the leaf of the plant.

Sequence of Adenosine A2A (P29274 whole entry): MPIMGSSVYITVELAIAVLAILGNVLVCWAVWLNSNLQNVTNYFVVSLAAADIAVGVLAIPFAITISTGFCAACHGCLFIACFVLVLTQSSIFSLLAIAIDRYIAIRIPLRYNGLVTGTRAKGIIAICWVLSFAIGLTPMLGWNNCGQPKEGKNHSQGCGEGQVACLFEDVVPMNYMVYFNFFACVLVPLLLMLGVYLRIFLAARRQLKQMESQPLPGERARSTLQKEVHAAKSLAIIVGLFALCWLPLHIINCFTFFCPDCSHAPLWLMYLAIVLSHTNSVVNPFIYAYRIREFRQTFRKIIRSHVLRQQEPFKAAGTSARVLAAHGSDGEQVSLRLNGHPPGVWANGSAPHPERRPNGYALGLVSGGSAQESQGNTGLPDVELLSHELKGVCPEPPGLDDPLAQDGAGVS

CO[C@@]12[C@H](COC(N)=O)C3=C(C(=O)C(C)=C(N)C3=O)N1C[C@@H]1N[C@@H]12 [Mitomycin]
Percent Grown ([1]; Concentration 0.001 (ttM)): 101 +/− 5% | Percent Grown ([1]; Concentration 0.01 (ttM)): 82 +/− 3% | Percent Grown ([1]; Concentration 0.1 (ttM)): 7 +/− 3% | Percent Grown ([1]; Concentration 1 (ttM)): 35 +/− 8% | Percent Grown ([1]; Concentration 10 (ttM)): 97 +/− 0% | pIC50 ([1]; Homo sapiens, A-431, Tumor, Skin (A431), semi-quantitative, nonlinear regression, read-out: IC50 (50% Inhibition Concentration)): 7.46 | TGI (Total Growth Inhibition) ([1]; Tumor, Skin (A431), semi-quantitative, nonlinear regression): 190 nM | inhibitory activity on tumor cell growth ([1]; at <10 p.M, A431): Significant inhibitory activity

Pheophorbide Phytolester
bioactivity in bio-assay on Adenosine A2A (Adenosine A2A): significant bioactivity

Pheoporbide a
bioactivity in bio-assay on Adenosine A2A (Adenosine A2A): significant bioactivity

Purpin 7
bioactivity in bio-assay on Adenosine A2A (Adenosine A2A): significant bioactivity

Pyro-phorbide a
bioactivity in bio-assay on Adenosine A2A (Adenosine A2A): significant bioactivity
